Experimental data from patent publication US11859209B2, “Method for inducing osteogenic differentiation” (KYOTO UNIVERSITY, priority 2017, dated 2024).
Blank lines part the entries; values can stand above or below the compound they belong to.

How the values were obtained:
iPS cells = test: Amount of calcium salt deposition (OCPC), one-procedure osteogenic differentiation method; format: cell-based, human
Procedure: On-feeder iPS cells were cultured under feeder-free conditions on Matrigel coating in mTeSR (product name, Stemcell Technologies) for three days (D-3 to D0). The cells were seeded on gelatin coating and cultured in a mixed culture medium of osteogenic induction medium (OI medium) and mTeSR (mixing ratio=4:1) supplemented with a ROCK inhibitor (ROCKi) and retinoic acid (RA) for the first two days (D0 to D2). The cells were then cultured in osteogenic induction medium supplemented with retinoic acid (RA) until D10. As a control, cells were cultured in the same culture medium without retinoic acid.
iPS cells were cultured under feeder-free conditions on laminin coating in StemFit AK03N (product name, Ajinomoto Healthy Supply), and then cultured in a mixed culture medium of osteogenic induction medium (OI medium) and mTeSR (mixing ratio=4:1) supplemented with a ROCK inhibitor (ROCKi) and retinoic acid (RA) for the first two days (D0 to D2). The cells were then cultured in osteogenic induction medium supplemented with retinoic acid (RA) until D10. As a control, cells were cultured in the same culture medium without retinoic acid.
(§1) For the evaluation of calcified nodule-forming capacity, the cultured cells were fixed in ethyl alcohol, reacted with alizarin red staining solution for 10 minutes and washed. The positive nodules were evaluated qualitatively. Calcium salt deposition was determined quantitatively by measuring the intensity of color produced by o-cresolphthalein complexon (OCPC) solution.
Next, induction of osteogenic differentiation via BMP and WNT was investigated using inhibitors against them. Cells were cultured in culture medium supplemented with a BMP inhibitor (LDN) or a WNT inhibitor (IWR1) for 10 days, and the amount of calcium salt deposition was determined. […] The results confirmed that both of BMP and WNT signals are implicated in the induction of osteogenic differentiation by retinoic acid.
Cells were cultured in culture medium supplemented with BMS 493, which is an antagonist against all the retinoic acid receptors (pan-RAR antagonist) for 10 days, and the amount of calcium salt deposition was determined.
Next, the effects of siRNAs on each RAR were analyzed. […] However, addition of siRNAs against RARα (α#1 and α#2) and siRNAs against RARβ (β#1 and β#2) reduced the bone-forming capacity. […] In the figure, CTL indicates cell culture supplemented with a control siRNA, and (−) indicates cell culture with no siRNA.
Cells were subjected to the one-procedure osteogenic differentiation method in osteogenic induction medium supplemented with a retinoic acid receptor (RAR) agonist instead of retinoic acid (RA). The amount of calcium salt deposition was determined on day 10. As with addition of retinoic acid, the amount of calcium salt deposition was increased by the addition of the RARα agonists Am 580 (200 nM) and Am 80 (1 μM), or the RARβ agonists CD2314 (3 μM) and AC 55649 (3 μM).

[1] = system: iPS cells derived from osteogenesis imperfecta patients having abnormalities of the COL1A1 gene; test: Type I collagen secretion by immunostaining with anti-type I collagen antibody, OI patient-derived iPS cells; format: cell-based, human; conditions: 100 nM added from day 2, assessed on day 10; FIG. 22
Excerpt: (§2) iPS cells (OI#1-1 and OI#2-1) were established from two OI patients (OI#1 and OI#2) having an abnormal COL1A1 gene. The respective mutations in the COL1A1 gene in the iPS cells were restored by genome editing technology to generate rescued iPS cells (resOI#1-1 and resOI#2-1). These iPS cells and standard iPS cells (WT1, 414C2; WT2, 409B2) were subjected to induction of osteogenic differentiation by the one-procedure osteogenic differentiation method. On day 10 of induction, the cells were compared in terms of the capacity of calcified nodule formation, the amount of calcium salt deposition, the expression of an ER stress-related gene, and the capacity of type I collagen secretion.
(§3) Accordingly, the inventors investigated whether the one-procedure osteogenic differentiation method can recapitulate the effects of an mTOR inhibitor. Rapamycin (10 nM) or everolimus (100 nM) was added to the culture medium from day 2 of the induction, and differentiation capacity was assessed on day 10.

[2] = system: iPS cells derived from osteogenesis imperfecta patients having abnormalities of the COL1A1 gene; test: Calcium salt deposition of cells induced from OI patient-derived iPS cells; format: cell-based, human; conditions: 100 nM added from day 2, assessed on day 10; FIG. 20
Procedure: as §1, §2, §3

[3] = system: iPS cells derived from osteogenesis imperfecta patients having abnormalities of the COL1A1 gene; test: Alizarin red staining of cells induced from OI patient-derived iPS cells; format: cell-based, human; conditions: 100 nM added from day 2, assessed on day 10; FIG. 19
Procedure: as §1, §2, §3

[4] = system: iPS cells derived from osteogenesis imperfecta patients having abnormalities of the COL1A1 gene; test: Expression of ER stress-related gene BiP in cells induced from OI patient-derived iPS cells; format: cell-based, human; conditions: 100 nM added from day 2, assessed on day 10; FIG. 21
Excerpt: as §2, §3

[5] = system: bone defects of 4 mm in diameter created in the cranium of NOD-SCID mice; test: Transplantation of day 7 induced cells into cranial bone defects, micro-CT and histology after six weeks; conditions: transplanted cells cultured in osteogenic induction medium supplemented with retinoic acid, FIG. 8B
[6] = day 10, agonist instead of retinoic acid, 3 μM, FIG. 14
[7] = day 10, agonist instead of retinoic acid, 1 μM, FIG. 14

Structure (SMILES): CCCCCCCCc1ccc(-c2ccc(C(=O)O)cc2)cc1 [AC 55649]
- amount of calcium salt deposition (iPS cells; [6]): increased

Structure (SMILES): CC1(C)CCC(C)(C)c2cc(NC(=O)c3ccc(C(=O)O)cc3)ccc21 [Am 80]
- amount of calcium salt deposition (iPS cells; [7]): increased

Structure (SMILES): CC1(C)CCC(C)(C)c2cc(C(=O)Nc3ccc(C(=O)O)cc3)ccc21 [Am 580]
- amount of calcium salt deposition (iPS cells; day 10, agonist instead of retinoic acid, 200 nM, FIG. 14): increased

Structure (SMILES): CC1(C)CC=C(C#Cc2ccccc2)c2cc(/C=C/c3ccc(C(=O)O)cc3)ccc21 [BMS 493]
- amount of calcium salt deposition (iPS cells; culture medium supplemented with pan-RAR antagonist for 10 days, induction by RA, FIG. 12): The effects of RA were completely eliminated

Structure (SMILES): O=C(O)c1ccc2cc(-c3ccc(O)c(C45CC6CC(CC(C6)C4)C5)c3)ccc2c1 [CD437]
- amount of calcium salt deposition (iPS cells; [7]): such effects were not observed

Structure (SMILES): CC1(C)CCC(C)(C)c2cc3cc(-c4cc(C(=O)O)cs4)ccc3cc21 [CD2314]
- amount of calcium salt deposition (iPS cells; [6]): increased

Structure (SMILES): O=C(Nc1cccc2cccnc12)c1ccc(N2C(=O)[C@@H]3[C@H](C2=O)[C@@H]2C=C[C@H]3C2)cc1 [IWR1]
- amount of calcium salt deposition (iPS cells; culture medium supplemented with BMP or WNT inhibitor for 10 days, induction by retinoic acid, FIG. 11): increase in calcium salt deposition by retinoic acid was inhibited

Structure (SMILES): CC1(C)CCC(C)(C)c2cc(Cn3cccn3)c(/C=C/c3ccc(C(=O)O)cc3)cc21 [R667]
- amount of calcium salt deposition (iPS cells; day 10, agonist instead of retinoic acid, 100 nM, FIG. 14): such effects were not observed

Structure (SMILES): CO[C@H]1C[C@@H]2CC[C@@H](C)[C@@](O)(O2)C(=O)C(=O)N2CCCC[C@H]2C(=O)O[C@H]([C@H](C)C[C@@H]2CC[C@@H](OCCO)[C@H](OC)C2)CC(=O)[C@H](C)/C=C(\C)[C@@H](O)[C@@H](OC)C(=O)[C@H](C)C[C@H](C)/C=C/C=C/C=C/1C [everolimus]
- Type I collagen secretion and distribution [1]: remarkably improved
- amount of calcium salt deposition [2]: improves
- capacity of forming alizarin red-positive calcified nodules [3]: improves
- ER stress (expression of the ER stress-related gene BiP) [4]: suggested reduction of ER stress

- tumor formation [5]: no tumor formation was observed
Structure (SMILES): CC1=C(/C=C/C(C)=C/C=C/C(C)=C/C(=O)O)C(C)(C)CCC1 [retinoic acid]
